Legend:
CaSR [1] = target: T1, CaSR (Rattus norvegicus, UniProt P48442); test: Accumulation of tritiated inositol phosphates [3H]IP induced by 9 mM extracellular Ca2+ in transfected CHO(CaSR) cells; type: cell-based; details: for remaining activity at 10 µM: 0.5 h, compounds at 10 μM, induced by 9 mM Ca2+, control = 9 mM (Ca2+)e alone = 100, mean of 2 to 4 experiments, read-out: Accumulation of [^3H]IP % relative to the control; for remaining activity at 10 µM / inhibition of the accumulation of [^3H]IP induced by 9 mM (Ca^2+)e: CHO(CaSR) cells; for inhibition of the accumulation of [^3H]IP induced by 9 mM (Ca^2+)e / type of activity on production of [^3H]IP (calcimimetic/calcilytic): 10 μM compound, 9 mM (Ca2+)e
T1 construct: expressed in transfected cells; host or cells: CHO (Chinese hamster ovary) cells
T1 sequence (P48442 20-1079): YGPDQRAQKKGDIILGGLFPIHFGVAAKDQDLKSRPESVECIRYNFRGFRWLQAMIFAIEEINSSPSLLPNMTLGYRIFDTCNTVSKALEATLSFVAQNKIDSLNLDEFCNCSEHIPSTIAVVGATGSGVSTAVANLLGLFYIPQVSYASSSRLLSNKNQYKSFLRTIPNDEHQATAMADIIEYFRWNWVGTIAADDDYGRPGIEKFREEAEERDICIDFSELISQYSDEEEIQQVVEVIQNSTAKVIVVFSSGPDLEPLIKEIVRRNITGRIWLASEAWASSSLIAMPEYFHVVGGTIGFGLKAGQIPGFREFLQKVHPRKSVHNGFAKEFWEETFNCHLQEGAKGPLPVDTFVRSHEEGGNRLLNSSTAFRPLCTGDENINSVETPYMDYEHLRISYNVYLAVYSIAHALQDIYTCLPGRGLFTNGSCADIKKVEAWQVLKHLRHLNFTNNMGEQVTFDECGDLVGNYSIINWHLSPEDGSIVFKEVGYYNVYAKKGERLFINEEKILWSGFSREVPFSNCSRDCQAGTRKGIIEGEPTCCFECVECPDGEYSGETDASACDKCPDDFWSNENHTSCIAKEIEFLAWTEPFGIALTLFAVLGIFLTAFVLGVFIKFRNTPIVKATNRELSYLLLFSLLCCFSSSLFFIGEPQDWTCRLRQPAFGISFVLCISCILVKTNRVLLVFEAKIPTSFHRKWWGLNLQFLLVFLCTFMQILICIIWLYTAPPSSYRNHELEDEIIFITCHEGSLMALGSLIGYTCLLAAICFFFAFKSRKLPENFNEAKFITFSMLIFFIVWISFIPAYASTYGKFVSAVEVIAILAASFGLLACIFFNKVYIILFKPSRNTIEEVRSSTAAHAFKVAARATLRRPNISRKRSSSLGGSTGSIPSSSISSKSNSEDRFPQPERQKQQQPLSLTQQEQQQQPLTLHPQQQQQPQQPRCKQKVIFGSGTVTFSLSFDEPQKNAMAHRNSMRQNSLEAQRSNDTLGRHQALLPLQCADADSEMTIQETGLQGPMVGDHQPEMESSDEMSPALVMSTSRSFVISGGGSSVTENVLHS
Source text: Complementary DNA encoding rat CaSR has been isolated from a rat striatum cDNA library (Ruat et al., Proc. Natl. Acad. Sci., 1995, vol. 92, p. 3161–3165). This receptor is identical with respect to its amino acid sequence to that expressed in the other tissues. Transfected Chinese hamster ovary_(CHO) cells expressing rat CaSR(CHO(CaSR)) have been characterized and the chemical signals (second messengers) induced by the activation of this receptor have been analyzed. Thus, a biochemical test which makes it possible to measure the accumulation of tritiated inositol phosphates [^3H]IP in response to the activation of the receptor has been developed (Ruat et al., J. Biol. Chem., 1996, vol. 271, p. 5972–5975; Ferry et al., Biochem. Biophys. Res. Commun., 1997, vol. 238, p. 866–873).
The technique for measuring the accumulation of tritiated inositol phosphates [^3H]IP which is used is that described in Ruat et al., J. Biol. Chem., 1996, vol. 271, p. 5972-5975. Only the mode of incubating the compounds is modified. After a preincubation of 15 min of the compounds according to the invention in the presence of a basal concentration of (Ca^2+)e equal to 2 mM, the compounds are incubated for 30 min in the presence of a (Ca^2+)e concentration of 4 or 9 mM. The results, mean of 2 to 4 independent experiments each carried out in triplicate, are grouped together in Table 2.
The activity of the compounds is expressed as a percentage of the control activity measured in the presence of (Ca^2+)e alone of concentration 4 mM or 9 mM.

CaSR [2] = target: T1, CaSR; test: Specificity: [3H]IP accumulation by compound alone in CHO(CaSR) cells, relative to basal level at 2 mM Ca2+; type: cell-based; details: compound alone at 10 μM; CHO(CaSR) cells (sentence also names control CHO(WT*) cells)
Description: (§1) To assess the specificity of the antagonist activity of the molecules according to the invention, the effect of one of them, PHD 263, was studied under various calcium conditions, in the presence or otherwise of ATP on CHO(WT*) and CHO(CaSR) cells. […] The accumulation of tritiated inositol phosphates is expressed as a percentage of the basal level observed in the presence of 2 mM Ca^2+ (100) in the CHO(WT*) or CHO(CaSR) cells.

CHO(WT*) cells = test: Specificity: [3H]IP accumulation in control CHO(WT*) cells not expressing CaSR, various calcium, with or without ATP; type: cell-based, Chinese hamster; details: PHD 263 10 μM
Description: as §1
PHD 263 (10 μM) has the same effect on the [^3H]IP response in the CHO(WT*) cells in the presence of 2 or 4 mM calcium, indicating an absence of a nonspecific effect of the compound linked to the variation of [Ca^2+]e.

[3] = clinical trials Phase I-II; cited from earlier work
[4] = test system: cell proliferation in the parathyroid gland; details: rat model reproducing chronic renal insufficiency; cited from earlier work

Row | Structure (SMILES) | remaining activity at 10 µM (CaSR [1]) | also measured
1 | CC(N[C@H]1CCCCC1NS(=O)(=O)c1ccc([N+](=O)[O-])cc1)c1cccc2ccccc12 (some centres unmarked) [PHD 397] | 43 ± 1% | 
2 | CC(N[C@H]1CCCCC1NS(=O)(=O)c1ccc(C(F)(F)F)cc1)c1cccc2ccccc12 (some centres unmarked) [PHD 403] | 21 ± 1% | 
3 | COc1ccc(S(=O)(=O)NC2CCCC[C@@H]2NC(C)c2cccc3ccccc23)cc1.Cl (some centres unmarked) [PHD 263, N1-(4-methoxybenzenesulfonyl)-N-2-[1-(1-naphthyl)ethyl]cyclohexane-1,2-diamine] | 37 ± 5% | melting point: 135 to 140 °C (dec.); accumulation of [^3H]IP as percentage of the basal level observed at 2 mM Ca2+ (100) (CaSR [2]): 124±10%; effect on the ATP-induced [^3H]IP response (CHO(WT*) cells; CHO(WT) cells, in the presence of ATP): adds to that of ATP; effect on the [^3H]IP response at 2 versus 4 mM calcium (CHO(WT*) cells; CHO(WT*) cells, 2 or 4 mM calcium): same effect; inhibition of the accumulation of [^3H]IP induced by 9 mM (Ca^2+)e (CaSR [1]): 64%
4 | CC(N[C@H]1CCCCC1NCc1ccccc1Cl)c1cccc2ccccc12.Cl.Cl (some centres unmarked) [PHD 346] | 110 ± 6% | type of activity on production of [^3H]IP (calcimimetic/calcilytic) (CaSR [1]): calcimimetic activity
5 | COc1cccc([C@@H](C)NCCCc2ccccc2Cl)c1 [NPS-R-568] |  | bioavailability [3]: low bioavailability; reduction of cell proliferation observed in the parathyroid gland [4]: 20–50%
6 | COc1ccc(S(=O)(=O)NC2CC=CC[C@@H]2NC(C)c2cccc3ccccc23)cc1 (some centres unmarked) [PHD 511] | 75 ± 10% | 
7 | CC(N[C@H]1CCCCC1NS(=O)(=O)c1ccc(Cl)c(Cl)c1Cl)c1cccc2ccccc12 (some centres unmarked) [AK 117] | 42 ± 5% | 
8 | CC(N[C@H]1CCCCC1NS(=O)(=O)c1ccc(OC(F)(F)F)cc1)c1cccc2ccccc12.Cl (some centres unmarked) [PHD 401] | 18 ± 3% | inhibition of the accumulation of [^3H]IP induced by 9 mM (Ca^2+)e (CaSR [1]): 82%
9 | CC(N[C@H]1CCCCC1NS(=O)(=O)c1ccc2ccccc2c1)c1cccc2ccccc12 (some centres unmarked) [PHD 404] | 39 ± 7% | 
10 | CC(N[C@H]1CCCCC1NS(=O)(=O)c1ccccc1Cl)c1cccc2ccccc12 (some centres unmarked) [PHD 350] | 74 ± 2% | inhibition of the accumulation of [^3H]IP induced by 9 mM (Ca^2+)e (CaSR [1]): 25%

More lines, main results first:

Row | remaining activity at 10 µM (CaSR [1]) | Structure (SMILES) | also measured
11 | 64 ± 5% | COc1ccc(S(=O)(=O)NC2CCCC[C@@H]2NC(C)c2cccc3ccccc23)cc1OC (some centres unmarked) [PHD 349] | 
12 | 56 ± 4% | CC(N[C@H]1CCCCC1NS(=O)(=O)c1ccccc1)c1cccc2ccccc12 (some centres unmarked) [PHD 408] | 
13 | 119 ± 12% | CC(N[C@H]1CCCCC1NCc1ccc(F)cc1)c1cccc2ccccc12.Cl.Cl (some centres unmarked) [PHD 348] | type of activity on production of [^3H]IP (calcimimetic/calcilytic) (CaSR [1]): calcimimetic activity
14 | 40 ± 5% | CC(N[C@H]1CCCCC1NS(=O)(=O)c1cccc(Cl)c1)c1cccc2ccccc12 (some centres unmarked) [AK 116] | 
15 | 28 ± 1% | CC(N[C@H]1CCCCC1NS(=O)(=O)c1ccc(Cl)cc1)c1cccc2ccccc12 (some centres unmarked) [PHD 406] | 
16 | 100 ± 4% | COc1ccc(OC)c(S(=O)(=O)NC2CCCC[C@@H]2NC(C)c2cccc3ccccc23)c1 (some centres unmarked) [AK 115] | 
